In US20160287602A1, “METHODS FOR PROMOTING MOTOR NEURON SURVIVAL” (PRESIDENT AND FELLOWS OF HARVARD COLLEGE, priority 2013, published 2016):
“Also recorded” adds a separate entry of the source.

Key:
[1] = ALS drug candidates; cited from earlier work
[2] = test system: FACS purified Hb9::GFP MNs; assay: MN survival after trophic factor withdrawal, FACS purified MN culture; type: cell-based, mouse; details: FACS purified MN cultures, trophic factors withdrawn, FIG. 1C
Text: ESC-derived MN culture achieves ˜30%-50% MN differentiation efficiency and is therefore highly heterogeneous. To examine whether AKIs specifically act in a cell-autonomous or non-cell-autonomous manner, we established a highly enriched MN culture through FACS purification based on Hb9::GFP reporter expression. […] Next, we asked whether AKIs exert their survival promoting effect only cell-autonomously or whether they also function non-cell-autonomously to rescue MN death. To address this question we produced astrocyte conditioned medium (ACM) by incubating primary murine astrocytes with AKIs (VX-680 and ZM447439). The ACM was then dialyzed using a dialyzer with pore size appropriate for eliminating residual AKIs.

[3] = test system: wild-type (Hb9::GFP) mouse ESC derived MNs; assay: MN survival after trophic factor withdrawal, mixed culture; type: cell-based; details: for survival of MNs (number of surviving MNs): trophic factor withdrawal, 3 days, wild-type Hb9::GFP MNs
Text: In the present study, we have screened highly specific small molecule kinase inhibitors to identify those which could promote MN survival. For the screen, we generated MNs from wild-type (Hb9::GFP) and SOD1^G93A (SOD1^G93A/Hb9::GFP) mouse ESCs using published protocols (Di Giorgio et al., 2007). We withdrew trophic factors as a standard method to induce MN death. Cell plating density as well as timing for initiation and duration of trophic factor withdrawal were used exactly as published to achieve ˜80% MN death in 3 days (FIG. 1A) (Yang et al., 2013). […] We continued to work with this compound class as it reproducibly promoted survival of both MNs types and the effect was robust. We further reasoned that since this compound class promoted survival of both MN types, the probability of its working in other contexts such as on human MNs and in the ALS mouse model was maximum. […]
(§1) Trophic factors were removed and ZM447439 was added to the cultures as previously and MN survival was analyzed on day 7, 14 & 21.

[4] = test system: SOD1^G93A (SOD1^G93A/Hb9::GFP) mouse ESC derived MNs; assay: as above; type: cell-based; details: trophic factor withdrawal, 3 days; SOD1^G93A/Hb9::GFP MNs
Text: In the present study, we have screened highly specific small molecule kinase inhibitors to identify those which could promote MN survival. For the screen, we generated MNs from wild-type (Hb9::GFP) and SOD1^G93A (SOD1^G93A/Hb9::GFP) mouse ESCs using published protocols (Di Giorgio et al., 2007). We withdrew trophic factors as a standard method to induce MN death. Cell plating density as well as timing for initiation and duration of trophic factor withdrawal were used exactly as published to achieve ˜80% MN death in 3 days (FIG. 1A) (Yang et al., 2013). […] We continued to work with this compound class as it reproducibly promoted survival of both MNs types and the effect was robust. We further reasoned that since this compound class promoted survival of both MN types, the probability of its working in other contexts such as on human MNs and in the ALS mouse model was maximum.
High expression of Aurora kinases is associated with various types of cancer (Sen et al., 1997; Reichardt et al., 2003; Tchatchou et al., 2007) and there are many AKIs including VX-680 and ZM447439 that are in clinical trials for anti-cancer drug development.
as §1

[5] = test system: wild-type (Hb9::GFP) mouse ESC derived MNs; details: previous small molecule survival screen (Yang et al., 2013); cited from earlier work
[6] = test system: SOD1^G93A (SOD1^G93A/Hb9::GFP) mouse ESC derived MNs; details: previous small molecule survival screen (Yang et al., 2013); cited from earlier work
[7] = test system: human iPSC derived MNs (healthy control, SOD1, TDP-43, C90RF72); details: human MNs derived from wild-type and ALS-patient-iPSCs (Yang et al., 2013); cited from earlier work
[8] = ALS (Miller et al., 2007); cited from earlier work
[9] = test system: synaptophysin in Hb9::GFP MN cultures; assay: Synaptophysin immunoblotting; type: cell-based, mouse
[10] = test system: HuES-3/Hb9::GFP human ESC derived MNs; assay: Human ESC derived MN survival after trophic factor withdrawal; type: cell-based; details: trophic factors withdrawn; AraC pre-treated cultures
Text: We generated MNs from a human ESC line expressing an HB9::GFP transgene [HuES-3/Hb9::GFP (Di Giorgio et al., 2008)]. Human ESC derived MN cultures were pre-treated with AraC to eliminate progenitor cells. We induced MN death by again withdrawing trophic factors. […] We also investigated the toxic effect of SOD1^G93A astrocytes on human ESC derived MN survival. We found significant death of human MNs cultured on mutant astrocytes.

SOD1^G93A/Hb9::GFP MNs = assay: Number of synapses per MN (synapsin/PSD-95 co-localization, automated imager); type: cell-based, mouse
Text: (§2) To examine whether MNs kept alive by AKIs maintain morphological integrity we carried out a series of analyses on surviving MNs in the absence of trophic factors. […] We also used an automated imager to analyze the number of synapses per MN by counting co-localized regions positive for the presynaptic marker synapsin and the postsynaptic marker PSD-95.

Hb9::GFP MNs = assay: as above; type: cell-based, mouse
Text: as §2

[11] = test system: Hb9::GFP and SOD1^G93A/Hb9::GFP MNs; assay: Microarray analysis of gene expression in MNs; type: cell-based, mouse; details: compound in the absence of TFs versus -TF
Text: (§3) Next we sought to investigate the mechanism by which AKIs promote MN survival. To evaluate this comprehensively we performed microarray analysis to compare gene expression between MNs cultured with: 1) Trophic factors (+TF), 2) No trophic factors (−TF), 3) VX-680 in the absence of TFs, and 4) ZM447439 in the absence of TFs. […] Gene expression was compared between +TF and −TF, VX-680 and −TF, and ZM447439 and −TF. With a cut off of more than 3 fold difference, there were 85 genes overlapping in all three comparison in Hb9::GFP MNs and 57 in SOD1^G93A/Hb9::GFP MNs. We found 39 overlapping genes when we compared both types of MNs (FIG. 5B). […] We analyzed the shortlist of 39 genes by using DAVID functional annotation bioinformatics microarray analysis software to find the potential pathways involved in MN survival. […] PKA is known to phosphorylate BAD protein, leading to increased cell survival (Jose M. LIZCANO et al., 2000; Julian Downward et al., Nature cell biology 1999; Komaki S et al., Neurosci Lett 2012). […] We further investigated this pathway by lentivirus knockdown of Prkarlb.

[12] = test system: synaptophysin in SOD1^G93A/Hb9::GFP MN cultures; assay: Synaptophysin immunoblotting; type: cell-based, mouse
[13] = test system: human iPSC derived MNs (healthy control, SOD1, TDP-43, C90RF72); assay: Human iPSC derived MN survival; type: cell-based; details: all human iPSC derived MN cultures; AraC treated
Text: We produced MNs from human iPSCs lines including a healthy control, two ALS patients expressing confirmed mutations in SOD1 (Boulting et al., 2011), two with mutations in TDP-43 and one in C90RF72. We treated these cultures with AraC to minimize the number of proliferating progenitors. […] We also examined the effect of SOD 1^G93A astrocytes co-culture on iPSC derived MNs. We found no toxic effect on survival in any of the patient iPSC derived MNs, but we did observe decreased MN survival in the control iPSC derived MNs. […] We also looked at the effect of AKIs on morphology and synapse formation. […] In addition, by immunoblot we observed that ZM447439 enhanced synaptic protein, synaptophysin, expression in both the presence and absence of trophic factors.

Prkarlb = assay: Prkar1b immunostaining in surviving MNs; type: cell-based, mouse; details: absence of TFs
[14] = test system: phosphorylated BAD (pBAD); assay: Phosphorylated BAD immunostaining in surviving MNs; type: cell-based, mouse; details: absence of TFs
MNs = assay: Lentivirus knockdown of Prkarlb, MN survival; type: cell-based, mouse
Text: as §3

For `CC(C)CCC[C@@H](C)[C@H]1CC[C@H]2[C@@H]3CCC4=CC(=NO)CC[C@]4(C)[C@H]3CC[C@]12C` [olesoxime], the “outcome of phase III clinical trials” value [1] is given as “failed”.

For `COc1cc2ncnc(Nc3ccc(NC(=O)c4ccccc4)cc3)c2cc1OC.Cl` [4-4-Ben, N-[4-[(6,7-Dimethoxy-4-quinazolinyl)amino]phenyl] benzamide Hydrochloride], the MN survival [2] was “rescued MN survival in a dose dependent fashion”, the “survival of MNs (number of surviving MNs)” value [3] was “consistently increased the survival of MNs” and the “survival of MNs (number of surviving MNs)” value [4] was “consistently increased the survival of MNs”.

For `CCCN[C@@H]1CCc2nc(N)sc2C1` [dexpramipexole], the “outcome of phase III clinical trials” value [1] is given as “failed”.

In the case of `O=C1Cc2c([nH]c3ccc(Br)cc23)-c2ccccc2N1` [Kenpaullone], the “healthy survival of MNs” value [5] is listed as “impressive ability to prolong the healthy survival”, the “healthy survival of MNs” value [6] is listed as “impressive ability to prolong the healthy survival” and the “survival of human MNs” value [7] is listed as “able to improve the survival”.

For `Nc1nc2ccc(OC(F)(F)F)cc2s1` [Riluzole], the functional improvement [8] is listed as “very little functional improvement; also recorded: little functional improvement”.

In the case of `Cc1cc(Nc2cc(N3CCN(C)CC3)nc(Sc3ccc(NC(=O)C4CC4)cc3)n2)[nH]n1` [VX-680, Tozasertib], the “expression of synaptic protein synaptophysin” value [9] is reported as “increased expression”, the MN survival [2] is reported as “rescued MN survival in a dose dependent fashion” and the “survival effect in dose dependent assay, comparison among AKIs” value ([3]; mixed MN culture, FIG. 1B) is reported as “most effective and potent in promoting MN survival”. For the same molecule, the “survival of MNs (number of surviving MNs)” value [3] was “consistently increased the survival of MNs; also recorded: most potent and robust at increasing survival”, the “human MN survival” value [10] was “rescued human MN death” and the “number of synapses per MN” value (SOD1^G93A/Hb9::GFP MNs; absence of trophic factors, SOD1^G93A/Hb9::GFP MNs) was “preserved the number of synapses”. For the same molecule, the “number of synapses per MN” value (SOD1^G93A/Hb9::GFP MNs; neurotrophin containing medium) was “increased the number of synapses per MN”, the “number of synapses per MN” value (Hb9::GFP MNs; absence of trophic factors, Hb9::GFP MNs) was “preserved the number of synapses” and the “number of synapses per MN” value (Hb9::GFP MNs; neurotrophin containing medium) was “increased the number of synapses per MN”. The “expression of genes related to synapse formation (Syt1, Snap25 and Sv2c, Map2 and Dcx)” value [11] was “upregulated”, the “expression of synaptic protein synaptophysin” value [12] was “increased expression” and the “survival of MNs (number of surviving MNs)” value [4] was “consistently increased the survival of MNs; also recorded: most potent and robust at increasing survival”. For the same molecule, the MN survival [13] was “substantially increase MN survival”, the “levels of Prkarlb” value (Prkarlb) was “increased levels” and the “levels of phosphorylated BAD (pBAD)” value [14] was “increased levels”. The “MN survival on knocking down Prkarlb in the presence of the compound” value (MNs) was “effectively decreased MN survival”.
